Legend:
rat [1] = details: Subchronic oral toxicity in rodents, wistar, Feed, dose end: 90 day, group: systemic
rat [2] = details: Carcinogenicity, wistar, Oral, Feed, dose end: 104 week, group: systemic
dog [3] = details: Subchronic oral toxicity in nonrodent, beagle, Feed, dose end: 90 day, group: systemic, systemic / clinical chemistry / alanine aminotransferase (alt/sgpt) / alanine aminotransferase (alt/sgpt) + systemic / clinical chemistry / …
rat [4] = details: Chronic toxicity, wistar, Oral, Feed, dose end: 12 month, group: systemic
rabbit = details: Prenatal developmental toxicity study, himalayan, Oral, Gavage/Intubation, dose end: 19 GD
dog [5] = details: Chronic toxicity, beagle, Oral, Feed, dose end: 52 week, group: systemic
rat [6] = details: Prenatal developmental toxicity study, fischer, Oral, Gavage/Intubation, dose end: 15 GD
dog [7] = details: Subchronic oral toxicity in nonrodent, beagle, Feed, dose end: 13 week, group: systemic
mouse [8] = details: Combined chronic toxicity/carcinogenicity; b6c3f1; Oral; Feed; dose end: 104 week; group: systemic; systemic / organ weight / kidney / absolute + systemic / organ weight / kidney / relative to body weight + systemic / pathology microscopic…
mouse [9] = details: Subchronic oral toxicity in rodents, b6c3f1, Feed, dose end: 90 day, group: systemic
rat [10] = details: Combined chronic toxicity/carcinogenicity, fischer, Oral, [Not Specified], dose end: 24 month, group: systemic
rat [11] = details: Subchronic oral toxicity in rodents, fischer, Feed, dose end: 90 day, group: systemic, systemic / clinical chemistry / thyroxine (t4) / thyroxine (t4), total + systemic / clinical chemistry / triiodothyronine (t3) / …
dog [12] = details: Subchronic oral toxicity in nonrodent, beagle, Capsule, dose end: 13 week, group: systemic, systemic / clinical chemistry / creatinine / creatinine + systemic / clinical chemistry / urea nitrogen / urea nitrogen + systemic / in life…
[13] = systemic / pathology microscopic / kidney / hyaline droplet + systemic / pathology microscopic / kidney / protein + systemic / pathology …
[14] = systemic / pathology microscopic / stomach / hyperkeratosis + systemic / pathology microscopic / liver / hypertrophy + systemic / pathology …
[15] = systemic / pathology gross / lymph node / enlarged
[16] = systemic / pathology microscopic / stomach / edema + systemic / pathology microscopic / stomach / hyperkeratosis + systemic / pathology …
[17] = systemic / pathology gross / liver / foci
[18] = systemic / pathology gross / liver / foci + systemic / pathology gross / stomach / thickened + systemic / pathology microscopic / liver / …
[19] = group: developmental, developmental / developmental malformation / bone / [other] + developmental / developmental malformation / bone / fused + developmental / …
[20] = group: developmental, systemic / in life observation / body weight / fetal weight
[21] = group: maternal, systemic / in life observation / body weight / body weight gain
[22] = systemic / clinical chemistry / alanine aminotransferase (alt/sgpt) / alanine aminotransferase (alt/sgpt) + systemic / clinical chemistry / …
[23] = systemic / in life observation / body weight / body weight gain + systemic / pathology microscopic / kidney / pigmentation
[24] = group: developmental, developmental / developmental malformation / bone / full supernumerary + developmental / developmental malformation / bone / incomplete …
[25] = systemic / in life observation / body weight / body weight + systemic / in life observation / body weight / body weight gain + systemic / in…
[26] = systemic / pathology microscopic / kidney / [other] + systemic / pathology microscopic / liver / nuclear alteration + systemic / pathology …
[27] = systemic / clinical chemistry / thyroxine (t4) / thyroxine (t4), total + systemic / organ weight / thyroid gland / absolute + systemic / …
[28] = systemic / pathology gross / thyroid gland / mass

[Cu+2].[O-]/N=[N+](\[O-])C1CCCCC1.[O-]/N=[N+](\[O-])C1CCCCC1
LOAEL (rat [1]; [13]): 140 mg/kg/day | NOAEL (rat [1]; [13]): 35 mg/kg/day | LEL (rat [1]; [14]): 125 mg/kg/day | NEL (rat [1]; [14]): < 125 mg/kg/day | LEL (rat [2]; [15]): 6 mg/kg/day | NEL (rat [2]; [15]): < 6 mg/kg/day | LOAEL (rat [2]; [16]): 33 mg/kg/day | NOAEL (rat [2]; [16]): 6 mg/kg/day | LEL (dog [3]): 69 mg/kg/day | LOAEL (dog [3]): 69 mg/kg/day | NEL (dog [3]): 26 mg/kg/day | NOAEL (dog [3]): 26 mg/kg/day | LEL (rat [4]; [17]): 6.1 mg/kg/day | NEL (rat [4]; [17]): < 6.1 mg/kg/day | LOAEL (rat [4]; [18]): 61 mg/kg/day | NOAEL (rat [4]; [18]): 18.3 mg/kg/day | LOAEL (rabbit; [19]): 30 mg/kg/day | NOAEL (rabbit; [19]): 10 mg/kg/day | LEL (rabbit; [20]): 10 mg/kg/day | NEL (rabbit; [20]): < 10 mg/kg/day | LEL (rabbit; [21]): 10 mg/kg/day | NEL (rabbit; [21]): < 10 mg/kg/day | LOAEL (rabbit; group: maternal, systemic / in life observation / body weight / body weight gain + systemic / in life observation / food consumption / food consumption): 30 mg/kg/day | NOAEL (rabbit; group: maternal, systemic / in life observation / body weight / body weight gain + systemic / in life observation / food consumption / food consumption + …): 10 mg/kg/day

O=C(O)COc1ccc(Cl)cc1Cl [2,4-Dichlorophenoxyacetic acid]
LOAEL (dog [5]; [22]): 5 mg/kg/day | NOAEL (dog [5]; [22]): 1 mg/kg/day | LEL (dog [5]; [23]): 1 mg/kg/day | NEL (dog [5]; [23]): < 1 mg/kg/day | LEL (rat [6]; [24]): 75 mg/kg/day | LOAEL (rat [6]; [24]): 75 mg/kg/day | NEL (rat [6]; [24]): 25 mg/kg/day | NOAEL (rat [6]; [24]): 25 mg/kg/day | LEL (rat [6]; [21]): 75 mg/kg/day | LOAEL (rat [6]; [21]): 75 mg/kg/day | NEL (rat [6]; [21]): 25 mg/kg/day | NOAEL (rat [6]; [21]): 25 mg/kg/day | LEL (dog [7]; [25]): 0.5 mg/kg/day | NEL (dog [7]; [25]): < 0.5 mg/kg/day | NOAEL (dog [7]; [25]): 1 mg/kg/day | LOAEL (dog [7]; systemic / in life observation / body weight / body weight gain + systemic / clinical chemistry / alanine aminotransferase (alt/sgpt) / …): 3.75 mg/kg/day | LEL (mouse [8]): 62.5 mg/kg/day | LOAEL (mouse [8]): 62.5 mg/kg/day | NEL (mouse [8]): 5 mg/kg/day | NOAEL (mouse [8]): 5 mg/kg/day | LEL (mouse [9]; systemic / clinical chemistry / thyroxine (t4) / thyroxine (t4), free + systemic / in life observation / food consumption / food consumption): 98.2 mg/kg/day | LOAEL (mouse [9]; [26]): 293 mg/kg/day | NEL (mouse [9]; [26]): 14.7 mg/kg/day | NOAEL (mouse [9]; [26]): 98.2 mg/kg/day | LOAEL (rat [10]; [27]): 73.1 mg/kg/day | NOAEL (rat [10]; [27]): 4.89 mg/kg/day | LEL (rat [10]; [28]): 4.89 mg/kg/day | NEL (rat [10]; [28]): < 4.89 mg/kg/day | LEL (rat [11]): 100 mg/kg/day | LOAEL (rat [11]): 100 mg/kg/day | NEL (rat [11]): 15 mg/kg/day | NOAEL (rat [11]): 15 mg/kg/day | LEL (dog [12]): 3 mg/kg/day | LOAEL (dog [12]): 3 mg/kg/day | NEL (dog [12]): 1 mg/kg/day | NOAEL (dog [12]): 1 mg/kg/day

Source: EPA's ToxRefDB 2
